Where two headings read alike, the source gives them in different places.
How the values were obtained:
[1] = test system: Puccinia triticina; Synonym: Puccinia recondite f. sp. tritici; assay: Wheat brown rust (PUCCRT) disease control on wheat seedlings; type: in vivo; conditions: Puccinia triticina, High volume application, 100 ppm
Protocol: Technical grades of materials were dissolved in acetone, which were then mixed with nine volumes of water containing 110 ppm Triton X-100. The fungicide solutions were applied onto wheat seedlings using an automated booth sprayer to run-off. All sprayed plants were allowed to air dry prior to further handling. All fungicides were evaluated using the aforementioned method for their activity vs. all target diseases. Wheat leaf blotch and brown rust activity were also evaluated using track spray applications, in which case the fungicides were formulated as EC formulations, containing 0.1% Trycol 5941 in the spray solutions. Wheat plants (variety Yuma) were grown from seed in a greenhouse in 50% mineral soil/50% soil-less Metro mix until the first leaf was fully emerged, with 7-10 seedlings per pot. These plants were inoculated with an aqueous spore suspension of Puccinia triticina either prior to or after fungicide treatments. After inoculation the plants were kept in a dark dew room at 22° C. with 100% relative humidity overnight to permit spores to germinate and infect the leaf. The plants were then transferred to a greenhouse set at 24° C. for disease to develop. Fungicide formulation, application and disease assessment followed the procedures as described in the Example A.

[2] = test system: Mycosphaerella graminicola; Anamorph: Septoria tritici; assay: Leaf blotch of wheat (SEPTTR) disease control on wheat seedlings; type: in vivo; conditions: Zymoseptoria tritici, High volume application, 100 ppm
Protocol: Technical grades of materials were dissolved in acetone, which were then mixed with nine volumes of water containing 110 ppm Triton X-100. The fungicide solutions were applied onto wheat seedlings using an automated booth sprayer to run-off. All sprayed plants were allowed to air dry prior to further handling. All fungicides were evaluated using the aforementioned method for their activity vs. all target diseases. Wheat leaf blotch and brown rust activity were also evaluated using track spray applications, in which case the fungicides were formulated as EC formulations, containing 0.1% Trycol 5941 in the spray solutions. Wheat plants (variety Yuma) were grown from seed in a greenhouse in 50% mineral soil/50% soil-less Metro mix until the first leaf was fully emerged, with 7-10 seedlings per pot. These plants were inoculated with an aqueous spore suspension of Septoria tritici either prior to or after fungicide treatments. After inoculation the plants were kept in 100% relative humidity (one day in a dark dew chamber followed by two to three days in a lighted dew chamber at 20° C.) to permit spores to germinate and infect the leaf. The plants were then transferred to a greenhouse set at 20° C. for disease to develop. When disease symptoms were fully expressed on the 1st leaves of untreated plants, infection levels were assessed on a scale of 0 to 100 percent disease severity. Percent disease control was calculated using the ratio of disease severity on treated plants relative to untreated plants.

[3] = 24 h, 1 Day Protectant, read-out: PUCCRT 1DP disease control
[4] = 72 h, 3 Day Curative, read-out: PUCCRT 3DC disease control
[5] = 24 h, 1 Day Protectant, read-out: SEPTTR 1DP disease control
[6] = 72 h, 3 Day Curative, read-out: SEPTTR 3DC disease control

Row | SMILES | pest or weed control at 100 ppm [1, 3] [%] | pest or weed control at 100 ppm [1, 4] [%] | pest or weed control at 100 ppm [2, 5] [%] | pest or weed control at 100 ppm [2, 6] [%]
1 | COc1ccnc(C(=O)N[C@H]2CCC[C@H](Oc3ccccc3)[C@@H](OCCCC(F)(F)F)[C@H](C)OC2=O)c1OC(C)=O [F109] | 80 to 100 | 80 to 100 | 80 to 100 | 80 to 100
2 | COCCC(=O)Oc1c(OC)ccnc1C(=O)N[C@H]1CCC[C@H](Oc2ccccc2)[C@@H](OCCCC(F)(F)F)[C@H](C)OC1=O [F110] | 80 to 100 | 80 to 100 | 80 to 100 | 80 to 100
3 | COc1ccnc(C(=O)N[C@H]2CCC[C@H](Oc3ccccc3)[C@@H](OCCCc3ccccc3)[C@H](C)OC2=O)c1O [F111] | 80 to 100 | < 0 | 0 to 80 | 0 to 80
4 | COc1ccnc(C(=O)N[C@H]2CCC[C@H](Oc3ccccc3)[C@@H](OCCCc3ccccc3)[C@H](C)OC2=O)c1OCOC(=O)C(C)C [F112] | 80 to 100 | 80 to 100 | 80 to 100 | 80 to 100
5 | COc1ccnc(C(=O)N[C@H]2CCC[C@H](Oc3ccc(C)cc3)[C@@H](Oc3ccc(C)cc3)[C@H](C)OC2=O)c1O [F113] | 0 to 80 | 0 to 80 | < 0 | 0 to 80
6 | CCCO[C@H]1[C@H](C)OC(=O)[C@@H](NC(=O)c2nccc(OC)c2O)CCC[C@@H]1OCCC [F114] | 80 to 100 | 80 to 100 | 80 to 100 | 80 to 100
7 | COc1ccnc(C(=O)N[C@H]2CCC[C@H](Oc3ccc(C)cc3)[C@@H](Oc3ccc(C)cc3)[C@H](C)OC2=O)c1OCOC(C)=O [F115] | 80 to 100 | 0 to 80 | 80 to 100 | 0 to 80
8 | CCCO[C@H]1[C@H](C)OC(=O)[C@@H](NC(=O)c2nccc(OC)c2OCOC(C)=O)CCC[C@@H]1OCCC [F116] | 80 to 100 | 80 to 100 | 80 to 100 | 80 to 100
9 | COc1ccnc(C(=O)N[C@H]2CCC[C@H](OCC3CC3)[C@@H](OCC3CC3)[C@H](C)OC2=O)c1O [F117] | 80 to 100 | 80 to 100 | < 0 | 80 to 100
10 | CCCO[C@H]1[C@H](C)OC(=O)[C@@H](NC(=O)c2nccc(OC)c2O)CCC[C@@H]1OC1CCCC1 [F118] | 80 to 100 | 80 to 100 | 80 to 100 | 0 to 80
11 | CCCO[C@H]1[C@H](C)OC(=O)[C@@H](NC(=O)c2nccc(OC)c2OCOC(C)=O)CCC[C@@H]1OC1CCCC1 [F121] | 80 to 100 | 80 to 100 | 80 to 100 | 80 to 100
12 | COc1ccnc(C(=O)N[C@H]2CCC[C@H](OC3CCCC3)[C@@H](OCC(C)C)[C@H](C)OC2=O)c1OCOC(C)=O [F122] | 80 to 100 | 80 to 100 | 80 to 100 | 80 to 100
13 | CCCO[C@H]1[C@H](C)OC(=O)[C@@H](NC(=O)c2nccc(OC)c2OCOC(=O)C(C)C)CCC[C@@H]1OC1CCCC1 [F123] | 80 to 100 | 80 to 100 | 80 to 100 | 80 to 100
14 | COc1ccnc(C(=O)N[C@H]2CCC[C@H](OC3CCCC3)[C@@H](OCC(C)C)[C@H](C)OC2=O)c1OCOC(=O)C(C)C [F124] | 80 to 100 | 80 to 100 | 80 to 100 | 80 to 100
15 | COc1ccnc(C(=O)N[C@H]2CCC[C@H](OC3CCCC3)[C@@H](OCCCC(F)(F)F)[C@H](C)OC2=O)c1OCOC(C)=O [F125] | 80 to 100 | 80 to 100 | 80 to 100 | 80 to 100
16 | COc1ccnc(C(=O)N[C@H]2CCC[C@H](OC3CCCC3)[C@@H](OCCCC(F)(F)F)[C@H](C)OC2=O)c1OCOC(=O)C(C)C [F126] | 80 to 100 | 80 to 100 | 80 to 100 | 80 to 100
17 | CCCO[C@H]1CCC[C@H](NC(=O)c2nccc(OC)c2O)C(=O)O[C@@H](C)[C@@H]1Oc1ccccc1 [F127] | 80 to 100 | 80 to 100 | 80 to 100 | 80 to 100
18 | COc1ccnc(C(=O)N[C@H]2CCC[C@H](OCCCc3ccccc3)[C@@H](Oc3ccccc3)[C@H](C)OC2=O)c1O [F128] | 80 to 100 | 0 to 80 | 80 to 100 | < 0
19 | COc1ccnc(C(=O)N[C@H]2CCC[C@H](OCCCC(F)(F)F)[C@@H](Oc3ccccc3)[C@H](C)OC2=O)c1O [F129] | 80 to 100 | 80 to 100 | 80 to 100 | < 0
20 | COc1ccnc(C(=O)N[C@H]2CCC[C@H](Oc3ccccc3)[C@@H](OCCCc3ccccc3)[C@H](C)OC2=O)c1OC(C)=O [F131] | 80 to 100 | 80 to 100 | 80 to 100 | 80 to 100
21 | COc1ccnc(C(=O)N[C@H]2CCC[C@H](OCCCC(F)(F)F)[C@@H](Oc3ccccc3)[C@H](C)OC2=O)c1OCOC(C)=O [F135] | 80 to 100 | 80 to 100 | 80 to 100 | 80 to 100
22 | COc1ccnc(C(=O)N[C@H]2CCC[C@H](OCCCC(F)(F)F)[C@@H](Oc3ccccc3)[C@H](C)OC2=O)c1OCOC(=O)C(C)C [F136] | 80 to 100 | 80 to 100 | 80 to 100 | 80 to 100
23 | COc1ccnc(C(=O)N[C@H]2CCC[C@H](OCCCC(F)(F)F)[C@@H](Oc3ccccc3)[C@H](C)OC2=O)c1OC(C)=O [F137] | 80 to 100 | 80 to 100 | 80 to 100 | 80 to 100
24 | COc1ccnc(C(=O)N[C@H]2CCC[C@H](OC3CCCC3)[C@@H](OC(=O)C3CC3)[C@H](C)OC2=O)c1O [F142] | 80 to 100 | 80 to 100 | 0 to 80 | 80 to 100
25 | COc1ccnc(C(=O)N[C@H]2CCC[C@H](OC3CCCC3)[C@@H](OC(=O)C3CCCC3)[C@H](C)OC2=O)c1O [F143] | 80 to 100 | 80 to 100 | 80 to 100 | 0 to 80
26 | COc1ccnc(C(=O)N[C@H]2CCC[C@H](OC3CCCC3)[C@@H](OC(=O)C3CC3)[C@H](C)OC2=O)c1OCOC(C)=O [F144] | 80 to 100 | 80 to 100 | 80 to 100 | 80 to 100
27 | COc1ccnc(C(=O)N[C@H]2CCC[C@H](OC3CCCC3)[C@@H](OC(=O)C3CC3)[C@H](C)OC2=O)c1OCOC(=O)C(C)C [F145] | 80 to 100 | 80 to 100 | 80 to 100 | 80 to 100
28 | COCCC(=O)Oc1c(OC)ccnc1C(=O)N[C@H]1CCC[C@H](OC2CCCC2)[C@@H](OCC(C)C)[C@H](C)OC1=O [F146] | 80 to 100 | 80 to 100 | 80 to 100 | 80 to 100
29 | COCCC(=O)Oc1c(OC)ccnc1C(=O)N[C@H]1CCC[C@H](OC2CCCC2)[C@@H](OC(=O)C2CC2)[C@H](C)OC1=O [F147] | 80 to 100 | 80 to 100 | 80 to 100 | 80 to 100
30 | COc1ccnc(C(=O)N[C@H]2CCC[C@H](OC3CCCC3)[C@@H](OC(=O)C3CCCC3)[C@H](C)OC2=O)c1OCOC(C)=O [F148] | 80 to 100 | 80 to 100 | 80 to 100 | 80 to 100

From patent US9681664B2, “Macrocyclic picolinamides as fungicides” (Dow Agrosciences LLC, priority 2012, dated 2017)
